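These data come from cells grown in 96-well plates and exposed to compound for 48 hours at five concentrations. At the GI50, growth is halved. TGI is the concentration that stops growth completely.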
What was measured:
Experiment in all cases: NCI-60 cell line screen, 48 h
[1] = system: HCC-2998 colon
[2] = system: HL-60(TB) leukemia
[3] = system: HS 578T breast
[4] = system: IGROV1 ovarian
[5] = system: MALME-3M melanoma
[6] = system: MDA-MB-231 breast
[7] = system: OVCAR-5 ovarian
[8] = system: SF-268 CNS
[9] = system: SR leukemia
[10] = system: HOP-62 NSCLC

Compound	TGI [1] [µM]	TGI [2] [µM]	TGI [3] [µM]	TGI [4] [µM]	TGI [5] [µM]	TGI [6] [µM]	TGI [7] [µM]	TGI [8] [µM]	TGI [9] [µM]	TGI [10] [µM]	GI50 [2] [µM]	GI50 [10] [µM]	GI50 [3] [µM]	GI50 [7] [µM]	GI50 [9] [µM]	GI50 [1] [µM]	GI50 [4] [µM]	GI50 [5] [µM]	GI50 [6] [µM]	GI50 [8] [µM]
COc1cccc2cc(C(N)=O)c(=N)oc12	> 100	> 100	97.5	> 100	45.9	> 100	> 100	> 100	> 100											
COc1cc(N=NN(C)C)c(C(C)c2c3cc(OC)c(OC)cc3cc[n+]2C)cc1OC (stereo not given)	> 100		> 100	> 100	87.5	77	> 100	> 100		> 100										
COc1cc(OC)c2c(c1OC)OCC(Cc1ccc(O)cc1)C2=O (stereo not given)		> 25	> 25	> 25	> 25	> 25	> 25	> 25	> 25	> 25										
CCOP(=O)(Nc1ccc(-c2ccccc2)cc1)OCC	> 100		> 100	> 100	> 100	> 100	> 100	> 100		> 100										
CCC1CC2CN3CCc4c([nH]c5c(-c6c(OC)ccc7c8c([nH]c67)[C@]6(C(=O)OC)CC7CC(CC)C6N(CC8)C7)c(O)ccc45)[C@](C(=O)OC)(C2)C13 (stereo not given in full)	27.2			31.3		47.1	33.2	32.9	45.4	28.5										
CC(=O)O[C@H]1CC[C@]2(C)[C@H]3CC[C@@H]4[C@H]5[C@H](C(C)C)CC[C@]5(C(=O)OCC(CO)(CO)N=C(N)N)CC[C@@]4(C)[C@]3(C)CC[C@H]2C1(C)C		4.26	5.04				3.09		4.61	3.56	1.79	1.82	2.05	1.67	2.11					
CN(C)CCn1c2ccccc2c2nc3cc4ccccc4cc3nc21	17.7	11.1		10.7	25.2			6.26		20.1										
CC(=O)O[C@H]1C[C@]2(C)C(CCC3O[C@@]32C)[C@@]2(CC(c3ccoc3)OC2O)[C@@H]1C (stereo not given in full)	> 100	52	> 100	> 100		> 100	> 100	> 100	> 100											
CCc1n[nH]c(=O)n1N1C(=O)C2CC=CCC2C1=O (stereo not given)	> 100		> 100	> 100	> 100	> 100	> 100	> 100	> 100	> 100										
Cc1ccc2c(c1)NC(=O)CCSSCCC(=O)N2		> 100	> 100	> 100	> 100	> 100	> 100	> 100	> 100	> 100										
CN(C)CCNc1ccc([N+](=O)[O-])c2nc3ccccc3c(N)c12		6.86	8.2	2.78	3.12	6.89	> 10	3.94	1.73	> 10										
CCCNC(=S)N/N=C/c1cccc(C)n1	> 100	50.8	> 100	> 100	> 100	> 100	> 100		48.3	> 100										
O=c1[nH]c2ccc(CC(=S)N3CCOCC3)cc2s1		> 100	> 100	> 100	> 100	> 100	> 100	> 100	> 100	> 100										
C/C(=N\Nc1ccc([N+](=O)[O-])cc1[N+](=O)[O-])c1ccc2ccccc2n1			> 100	> 100	> 100	> 100	> 100	> 100	> 100											
COC(=O)CC1(CNC(=O)OCc2ccccc2)OCCO1	> 100	> 100		> 100	> 100	> 100	> 100		> 100											
CCOc1ccc2c(c1)/C(=C(\C(Cl)=C(Cl)Cl)[N+](=O)[O-])N2	> 100		> 100		> 100	> 100	> 100	> 100		> 100										
COc1cc(/C=C/C(C)=O)ccc1OP(=O)(O)O	> 100		> 100	> 100	> 100	> 100	> 100	> 100		> 100										
Cc1ccc(C(=O)C(C)N)cc1 (stereo not given)	> 100	> 100		> 100	> 100		> 100	> 100	> 100	> 100										
CC1C(c2ccc3c(c2)OCO3)c2cc3c(cc2OC1N1CCCC1)OCO3 (stereo not given)	49.1		44.5	> 100			> 100	> 100	89.8	> 100										
NNC(=O)CNC(=O)CSc1nnc(COc2ccc(Cl)cc2)n1-c1ccccc1	> 100	> 100		> 100	> 100	> 100	> 100	> 100		> 100										
O=C(/C=C/c1ccc(O)c(O)c1)OCCc1cccc2ccccc12	23.4	3.52		14.5	19.5	7.56	31.7	27	5.64											
O=C(O)CSCC(=O)Nc1ccc2cccc3c2c1CC3	> 100	> 100	> 100	> 100	> 100	> 100	> 100	> 100		> 100										
CC(=O)OC12c3ccccc3C1CCCCCC21OCCCO1 (stereo not given)	> 100	> 100		> 100			> 100	> 100	> 100	> 100										
N=C(N)SCCc1cn2ccccc2n1	> 100	> 100			> 100		> 100	> 100	> 100	> 100										
COc1ccc(/C=C2\CSC/C(=C\c3ccc(OC)c(OC)c3OC)C2=O)c(OC)c1OC		72.1		> 100	27.6	> 100	> 100	> 100	80.4	> 100										

Compound	TGI [1] [µM]	TGI [2] [µM]	TGI [3] [µM]	TGI [4] [µM]	TGI [5] [µM]	TGI [6] [µM]	TGI [7] [µM]	TGI [8] [µM]	TGI [9] [µM]	TGI [10] [µM]	GI50 [2] [µM]	GI50 [10] [µM]	GI50 [3] [µM]	GI50 [7] [µM]	GI50 [9] [µM]	GI50 [1] [µM]	GI50 [4] [µM]	GI50 [5] [µM]	GI50 [6] [µM]	GI50 [8] [µM]
CCOc1ccccc1/C=C1\NC(=O)N(/C=C2\C(=O)Oc3ccccc3C2=O)C1=O	> 100	74.4	> 100	> 100		> 100	> 100	> 100		> 100										
CCSC1=N/C(=C\c2ccccc2O)C(Nc2ccc(C)cc2)=N1		> 100	> 100	> 100	> 100	> 100	> 100	> 100		> 100										
COC(=O)C(CCC1C=CCC1)N=Cc1ccccc1 (stereo not given)	> 100	> 100	> 100	> 100		> 100	> 100	> 100	> 100	> 100										
CC(C)(C)c1ccc(CN2CCN(C(c3ccccc3)c3ccc(Cl)cc3)CC2)cc1 (stereo not given)	89.4		> 100	> 100	> 100	> 100	> 100	> 100	> 100	> 100										
COC(OC)c1cccc2c1C1(O)CCC3(CC21)OCCCCO3 (stereo not given)	> 100	> 100		> 100	> 100		> 100	> 100	> 100	> 100										
c1ccc(C2SCC3=Nc4ccccc4CN32)cc1 (stereo not given)	> 100	89.9	> 100			> 100	> 100	> 100	> 100	> 100										
Cc1csc2nc(-c3ccc([N+](=O)[O-])cc3)c(/C=N/N=C(N)N)n12	1.59	4.49	3.15	2.75	3.61	3.52	2.85	3.29		3.28										
C=C(C=O)c1c2c(nc3ccccc13)C(=O)c1ccccc1C2=O	> 100	15.9	0.961	2.19	3.27	3.27	4.92	3.02		2.48										
Cc1cccc(Nc2cn(COCc3ccccc3)c(=O)[nH]c2=O)c1	> 100	> 100	> 100	> 100			> 100	> 100	> 100	86.3										
CC[C@@]1(O)C(=O)OCc2c1cc1n(c2=O)Cc2c-1nc1ccccc1c2CC[Si](C)(C)C	0.713	> 100	> 100	> 100	0.155	> 53.9	6.59			0.458										
CC(C)OP(=O)(CN(C)/C(F)=N\C(F)(F)F)OC(C)C	> 100	> 100	> 100	> 100	> 100	> 100	> 100	> 100		> 100										
O=C(N/N=C1\CCc2ccccc2C1)N/N=C1\CCc2ccccc2C1	> 10	> 10			> 10	> 10	> 10	> 10	> 10	> 10										
C1COC(NC(C2CC2)C2CC2)=N1	> 100	> 100	> 100	> 100	> 100	> 100	> 100		> 100											
Nc1nc(Cl)cc(NCC2(CO)CCC(Cc3ccccc3)C2)n1 (stereo not given)	> 100	26.1	> 79.9	> 100	> 71.9	> 100	> 100	> 100		> 100										
O=P(O)(O)C(O)/C=C/c1ccccc1 (stereo not given)	> 100	> 100	> 100	> 100	> 100	> 100	> 100	> 100		> 100										
CC(=O)[O-].CC(=O)[O-].O=C(N/N=C/c1cc(Cl)cc(Cl)c1[OH2+])c1ccncc1.[Co+2]	> 100	> 100		> 100	> 100		> 100	> 100	> 100	> 100										
CCOP(=O)(/C=C\n1cnc2c(=O)n(C(C)=O)c(N)nc21)OCC		> 100		> 100		> 100	> 100			> 100										
O=C1OCC(C#Cc2ccccc2)=C1Cl	15.2		18	> 100	36.5	6.39	15	72.7		1.7		0.388	2.46	3.59		3.78	1.88	13.4	1.19	6.82
CC1CCCC2=C1C(c1ccc(Cl)cc1)n1c(s/c(=C\c3ccc(Cl)cc3)c1=O)=N2 (stereo not given)			> 100	> 100		> 100	> 100	> 100		> 100										
CC(=O)Nc1ncc(Sc2ccccc2C(=O)O)s1		> 100	> 100	> 100		> 100	> 100	> 100	> 100	> 100										
O=C(c1cc(Cl)cc(Cl)c1)N(C(=S)OC12CC3CC(CC(C3)C1)C2)c1ccccc1	> 100	84.5	> 100		> 100	> 100	> 100	> 100	> 100	> 100										
CC(=O)C1=C(N=[N+]=[N-])c2cccc3cccc(c23)C1=O	32		80.6	32.6	33.5	32	54.8	75.2		29.7										
N#Cc1c(-c2ccccc2)/c(=C\O)c(=O)n2c1nc1ccccc12		> 100	91.8	> 100	> 100	> 100	> 100	> 100	> 100											
CC(NS(C)(=O)=O)c1ccccc1 (stereo not given)	> 100	> 100	> 100	> 100	> 100	> 100	> 100		> 100	> 100										

Source: PubChem BioAssay (NCI)
